In US5451600A, “Substituted tetrahydrobenzopyrrolylfuranoic acid derivatives as phospholipase A2 inhibitors” (Hoffmann-La Roche Inc., priority 1994, dated 1995):

Legend:
[1] = biological target: T1, PLA2 activity in human synovial fluid (HSF) (Homo sapiens, UniProt P14555); test: Phospholipase A2 (PLA2) enzymatic assay - % Inhibition of HSF-PLA2; format: biochemical; conditions: for inhibition at 5 µM: read-out: % Inhib. of HSF-PLA2 at 5 μM
T1 construct: Synovial fluid was obtained from patients with rheumatoid arthritis; from tissue; host or cells: cell-depleted synovial fluid of patients with rheumatoid arthritis
T1 sequence (P14555 21-144): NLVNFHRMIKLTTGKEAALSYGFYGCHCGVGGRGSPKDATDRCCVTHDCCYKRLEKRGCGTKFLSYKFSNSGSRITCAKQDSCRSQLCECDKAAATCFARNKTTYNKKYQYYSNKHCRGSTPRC
Source text: 1, Phospholipase A2 (PLA2) enzymatic assay - % Inhibition of HSF-PLA2
PLA2 assay procedure described by Hope et al., Inflammation 14:543-559 (1.990) was utilized to measure the inhibitory activity of the invention (inhibitor) against PLA2 activity in human synovial fluid (HSF). Synovial fluid was obtained from patients with rheumatoid arthritis. The assay procedure measured the release of [1-^14 C]oleic acid from the sn-2 position of phospholipids in autoclaved Escherichia coli previously grown in media containing [1-^14 C]oleic acid. The standard assay reaction conditions included 1×10^9 Escherichia coil (10,000 dpm ^14 C), 0.15% (v/v) cell-depleted HSF, (which was equivalent to 66 μg protein/mL) 2 mM CaCl2, 150 mM NaCl, 50 mM sodium (N-[2-hydroxyethyl] piperazine-N'-[2-ethanesulfonate]) (HEPES) buffer (pH 7.3), 1% dimethyl sulfoxide (DMSO) and various concentrations of inhibitor in a total volume of 0.5 ml. Inhibitors were dissolved in DMSO and added. The reaction was initiated by addition of HSF, incubated for 30 min at 37° C. and then stopped by addition of 2.5 ml of chloroform/methanol (1:1.5, v/v). The total lipids were extracted by the method of Bligh, E. G., and Dyer, W. J, Can. J. Biochem. Physiol. 37:911-917 (1959) by the further addition of 0.5 mL of chloroform and 1 mL of water with mixing. The lipid extract was redissolved in chloroform/methanol (9:1, v/v) containing 10 ug of carrier oleic acid. The oleic acid was separated from phospholipids by thin layer chromatography using gel-impregnated glass fiber sheets (ITLC type SG sheets). The sheets were preactivated by heating at 110° C. for 30 min. The lipid extract was applied to the sheets and chromatographed for 6 minutes, using hexane/acetic acid (100:1, v/v). The positions on the sheet containing oleic acid and phospholipids were visualized by exposure to iodine vapor and located by comparison to standards. The oleic acid and phospholipid zones were cut from the sheets, shaken individually with 2 ml of ethanol/water (80:20, v/v) and 15 ml of Aquasol, then counted for [^14 C] radioactivity (dpm). PLA2 activity, expressed as percent hydrolysis, was calculated from the formula: [formula] and was corrected for nonenzymatic hydrolysis of the substrate. Percent inhibition due to the presence of drug was calculated from the formula: [formula]
When various concentrations of a Compound of Formula I were tested, the percent inhibition at each concentration was plotted as log concentration (abscissa) versus percent inhibition (ordinate) and the IC50 was determined from this plot.

[2] = test system: carrageenan-induced paw edema in rats; test: Carrageenan-induced paw edema model of inflammation; format: in vivo; conditions: 2 hr, rat, read-out: Carrageenan ind. paw edema % Inhib. 2 hr; for inhibition in vivo at 20 mg/kg: 20 mg/Kg ip; for inhibition in vivo at 100 mg/kg: 100 mg/Kg po; for inhibition in vivo at 10 mg/kg: 10 mg/Kg ip
[3] = test system: cellular PLA2; test: Inhibition of Cellular Phospholipase A2 (A23187-stimulated macrophages); format: cell-based; conditions: 5 μM; rat peritoneal macrophages, A-23187 stimulated
Protocol: II. Inhibition of Cellular Phospholipase A2. - % Inhibition of Cellular PLA2
Resident macrophages were obtained from rats by peritoneal lavage with phosphate buffered saline minus Ca2^++ and Mg2^++ (PBS). Cells were washed 3 times with PBS and resuspended in Dulbecco's Modified Eagle's Medium (GiBco) containing L-glutamine low D-glucose (1000 mg/L), and sodium pyruvate (110 mg/L), supplemented with 10% fetal calf serum. Cells were counted on a Coulter ZBI cell counter and then resuspended to a concentration of 6×10^6 cells/1.5 ml. The cell suspension (1.5 ml culture dishes (35 mm) and the cells were allowed to adhere to the dishes for 90 minutes at 37° C. Dishes were washed 3 times with PBS to remove non-adherent cells. [^14 C]arachidonic acid ([^14 C]-AA, approximately […], were added to the cells (1 uCi/dish) and allowed to incorporate for 120 minutes. Medium containing unincorporated [^14 C]-AA was removed and the cell layer was again washed 3 times with PBS. Inhibitors were dissolved in dimethylsulfoxide (DMSO) and added directly to the macrophages in Hank's Balanced Salt Solution (GiBco) phosphate-buffered, pH 7.4) to obtain the desired final concentration. Cells were incubated with drug or DMSO for 30 minutes at 37° C. and were then stimulated with calcium-ionophore A-23187 (0.75 uM) for 20 minutes. The extracellular medium was removed and the [^14 C] radioactivity released into this medium from AA metabolism was measured by liquid scintillation spectroscopy. The amounts of LTB4 and PGE2 were measured in the extracellular medium by radio immunoassay with specific antisera. The effects of inhibitor were measured as percent inhibition of A23187- stimulated AA metabolite release (^14 C release, PGE2 and LTB4 production) (control) which were calculated from the formula: [formula] IC50 's were calculated as described in the HSF-PLA2 assay.

CC(C)CCCC(C)CCn1c2c(c3cc(Oc4ccc(C(=O)O)o4)ccc31)CCCC2 (racemic) [Example 144, rac-5-[[1,2,3,4-tetrahydro-9-(3,7-dimethyloctyl)-9H-dibenzo[b,d]pyrrol-6-yl]oxy]-2-furancarboxylic acid]
inhibition at 5 µM [1]: 78% | inhibition in vivo at 30 mg/kg ([2]; 30 mg/Kg ip): 80% | % Inhib. of cellular PLA2 at 5 μM [3]: 87%

CCCCCCCCn1c2c(c3cc(Oc4ccc(C(=O)O)o4)ccc31)CCCC2c1cccc(OC)c1 (racemic) [Example 153, rac-5-[[1,2,3,4-tetrahydro-1-(3-methoxyphenyl)-9-octyl-9H-dibenzo[b,d]pyrrol-6-yl]oxy]-2-furancarboxylic acid]
IC50 ([1]; human synovial fluid PLA2, 30 min at 37° C., pH 7.3): 2400 nM | inhibition at 5 µM [1]: 63% | % Inhib. of cellular PLA2 at 5 μM [3]: 74%

CCCCCCCCn1c2c(c3cc(/C=C/c4ccc(C(=O)O)o4)ccc31)C(C)(C)CC(C)(C)C2 [Example 46, (E)-5-[2-(1,2,3,4-tetrahydro-2,2,4,4-tetramethyl-9-octyl-9H-dibenzo[b,d]pyrrol-6-yl)ethenyl]-2-furancarboxylic acid]
inhibition at 5 µM [1]: 75% | % Inhib. of cellular PLA2 at 5 μM [3]: 48%

CCCCCCCCn1c2c(c3cc(/C(C)=C/c4ccc(C(=O)O)o4)ccc31)CCCC2 [Example 47, (E)-5-[2-methyl-2-(1,2,3,4-tetrahydro-9-octyl-9H-dibenzo[b,d]pyrrol-6-yl)ethenyl]-2-furancarboxylic acid]
inhibition at 5 µM [1]: 59% | inhibition in vivo at 20 mg/kg [2]: 70% | inhibition in vivo at 100 mg/kg [2]: 49% | % Inhib. of cellular PLA2 at 5 μM [3]: 77%

CCCCCCCCn1c2c(c3cc(/C(C)=C/c4ccc(C(=O)O)o4)ccc31)CCCC2(C)C [Example 48, (E)-5-[2-methyl-2-(1,2,3,4-tetrahydro-1,1-dimethyl-9-octyl-9H-dibenzo[b,d]-pyrrol-6yl)ethenyl]-2-furancarboxylic acid]
inhibition at 5 µM [1]: 75% | inhibition in vivo at 10 mg/kg [2]: 58% | % Inhib. of cellular PLA2 at 5 μM [3]: 62%

CCCCCCCCn1c2c(c3cc(/C(C)=C/c4ccc(C(=O)O)o4)ccc31)C(C)(C)CC(C)(C)C2 [Example 49, (E)-5-[2-methyl-2-(1,2,3,4-tetrahydro-2,2,4,4-tetramethyl-9-octyl-9H-dibenzo[b,d]pyrrol-6yl)ethenyl]-2-furancarboxylic acid]
inhibition at 5 µM [1]: 83% | % Inhib. of cellular PLA2 at 5 μM [3]: 15%

CCCCCCCCn1c2c(c3cc(/C=C(\C)c4ccc(C(=O)O)o4)ccc31)CCCC2 [Example 50, (E)-5-[1-methyl-2-(1,2,3,4-tetrahydro-9-octyl-9H-dibenzo[b,d]-pyrrol-6-yl)ethenyl]-2-furancarboxylic acid]
inhibition at 5 µM [1]: 47% | inhibition in vivo at 20 mg/kg [2]: 56% | % Inhib. of cellular PLA2 at 5 μM [3]: 79%

CCCCCCCCn1c2c(c3cc(/C=C(\C)c4ccc(C(=O)O)o4)ccc31)CCCC2(C)C [Example 53, (E)-5-[1-methyl-2-(1,2,3,4-tetrahydro-1,1-dimethyl-9-octyl-9H-dibenzo[b,d]pyrrol-6-yl)ethenyl]-2-furancarboxylic acid]
inhibition at 5 µM [1]: 73% | inhibition in vivo at 10 mg/kg [2]: 68% | inhibition in vivo at 100 mg/kg [2]: 55% | % Inhib. of cellular PLA2 at 5 μM [3]: 63%

CCCCCCCCn1c2c(c3cc(Oc4ccc(C(=O)O)o4)ccc31)CC(C)(C)CC2 [Example 135, 5-[(1,2,3,4-tetrahydro-3,3-dimethyl-9-octyl-9H-dibenzo[b,d]pyrrol-6-yl)oxy]-2-furancarboxylic acid]
inhibition at 5 µM [1]: 66% | % Inhib. of cellular PLA2 at 5 μM [3]: 90%

CCCCn1c2c(c3cc(Oc4ccc(C(=O)O)o4)ccc31)CCCC2 [Example 136, 5-[(1,2,3,4-tetrahydro-9-butyl-9H-dibenzo[b,d]pyrrol-6-yl)oxy]-2-furancarboxylic acid]
inhibition at 5 µM [1]: 12% | % Inhib. of cellular PLA2 at 5 μM [3]: 85%

O=C(O)c1ccc(Oc2ccc3c(c2)c2c(n3Cc3ccc(Br)cc3)CCCC2)o1 [Example 137, 5-[[1,2,3,4-tetrahydro-9-(4-bromophenyl)methyl-9H-dibenzo[b,d]pyrrol-6-yl]oxy]-2-furancarboxylic acid]
inhibition at 5 µM [1]: 36% | % Inhib. of cellular PLA2 at 5 μM [3]: 100%

Cn1c2c(c3cc(Oc4ccc(C(=O)O)o4)ccc31)CCCC2 [Example 138, 5-[(1,2,3,4-tetrahydro-9-methyl-9H-dibenzo[b,d]pyrrol-6-yl)oxy]-2-furancarboxylic acid]
inhibition at 5 µM [1]: 39% | % Inhib. of cellular PLA2 at 5 μM [3]: 13%

CCCCCCCn1c2c(c3cc(Oc4ccc(C(=O)O)o4)ccc31)CCCC2 [Example 140, 5-[(1,2,3,4-tetrahydro-9-heptyl-9H-dibenzo[b,d]pyrrol-6-yl)oxy]-2-furancarboxylic acid]
inhibition at 5 µM [1]: 55% | % Inhib. of cellular PLA2 at 5 μM [3]: 97%

CCCCCCCCCCCCn1c2c(c3cc(Oc4ccc(C(=O)O)o4)ccc31)CCCC2 [Example 141, 5-[(1,2,3,4-tetrahydro-9-dodecyl-9H-dibenzo[b,d]pyrrol-6-yl)oxy]-2-furancarboxylic acid]
inhibition at 5 µM [1]: 66% | % Inhib. of cellular PLA2 at 5 μM [3]: 74%

CCCCCCCc1ccc(Cn2c3c(c4cc(Oc5ccc(C(=O)O)o5)ccc42)CCCC3)cc1 [Example 143, 5-[[1,2,3,4-tetrahydro-9-(4-heptylphenyl)methyl-9H-dibenzo[b,d]pyrrol-6-yl]oxy]-2-furancarboxylic acid]
inhibition at 5 µM [1]: 76% | % Inhib. of cellular PLA2 at 5 μM [3]: 65%

O=C(O)c1ccc(Oc2ccc3c(c2)c2c(n3Cc3ccccc3F)CCCC2)o1 [Example 148, 5-[[1,2,3,4-tetrahydro-9-[(2-fluorophenyl)methyl]-9H-dibenzo[b,d]pyrrol-6-yl]oxy]-2-furancarboxylic acid]
inhibition at 5 µM [1]: 65% | % Inhib. of cellular PLA2 at 5 μM [3]: 97%

Cc1ccc(Cn2c3c(c4cc(Oc5ccc(C(=O)O)o5)ccc42)CCCC3)cc1 [Example 151, 5-[[1,2,3,4-tetrahydro-9-[(4-methylphenyl)methyl]-9H-dibenzo[b,d]pyrrol-6-yl]oxy]-2-furancarboxylic acid]
inhibition at 5 µM [1]: 72% | % Inhib. of cellular PLA2 at 5 μM [3]: 93%

Cc1cc(C)c(Cn2c3c(c4cc(Oc5ccc(C(=O)O)o5)ccc42)CCCC3)c(C)c1 [Example 152, 5-[[1,2,3,4-tetrahydro-9-[(2,4,6-trimethylphenyl)methyl]-9H-dibenzo[b,d]pyrrol-6-yl]oxy]-2-furancarboxylic acid]
inhibition at 10 µM ([1]; 10 μM (footnote a), read-out: % Inhib. of HSF-PLA2 (a: % Inhibition at 10 μM)): 72% | % Inhib. of cellular PLA2 at 5 μM [3]: 89%
